# Experiments:
# [1] = biological target: T1, TRPV1 (Rattus norvegicus, UniProt O35433); experiment: capsaicin-induced 45Ca2+-uptake in primary dorsal root ganglion; format: cell-based; conditions: for Hill Slope ± SEM / enhancing activity (in words): primary DRG cells; for Hill Slope ± SEM: ~0.5 µM capsaicin, single assay run in quadruplicate wells; for enhancing activity (in words): in presence of capsaicin
# [2] = biological target: T1, TRPV1; experiment: capsaicin-induced 45Ca2+-uptake in TRPV1ε-NIH3T3 cells; format: cell-based; conditions: for Hill Slope ± SEM: enhancement of 45Ca2+-uptake in presence of 2 µM capsaicin; for enhancing activity (in words): in presence of 2 µM capsaicin
# [3] = biological target: human A3 adenosine receptor; conditions: read-out: Ki value at the A3 receptor; ref [30]; cited from earlier work
# [4] = biological target: T1, TRPV1; experiment: intracellular Ca2+ imaging; format: cell-based
# T1 sequence (O35433 whole entry): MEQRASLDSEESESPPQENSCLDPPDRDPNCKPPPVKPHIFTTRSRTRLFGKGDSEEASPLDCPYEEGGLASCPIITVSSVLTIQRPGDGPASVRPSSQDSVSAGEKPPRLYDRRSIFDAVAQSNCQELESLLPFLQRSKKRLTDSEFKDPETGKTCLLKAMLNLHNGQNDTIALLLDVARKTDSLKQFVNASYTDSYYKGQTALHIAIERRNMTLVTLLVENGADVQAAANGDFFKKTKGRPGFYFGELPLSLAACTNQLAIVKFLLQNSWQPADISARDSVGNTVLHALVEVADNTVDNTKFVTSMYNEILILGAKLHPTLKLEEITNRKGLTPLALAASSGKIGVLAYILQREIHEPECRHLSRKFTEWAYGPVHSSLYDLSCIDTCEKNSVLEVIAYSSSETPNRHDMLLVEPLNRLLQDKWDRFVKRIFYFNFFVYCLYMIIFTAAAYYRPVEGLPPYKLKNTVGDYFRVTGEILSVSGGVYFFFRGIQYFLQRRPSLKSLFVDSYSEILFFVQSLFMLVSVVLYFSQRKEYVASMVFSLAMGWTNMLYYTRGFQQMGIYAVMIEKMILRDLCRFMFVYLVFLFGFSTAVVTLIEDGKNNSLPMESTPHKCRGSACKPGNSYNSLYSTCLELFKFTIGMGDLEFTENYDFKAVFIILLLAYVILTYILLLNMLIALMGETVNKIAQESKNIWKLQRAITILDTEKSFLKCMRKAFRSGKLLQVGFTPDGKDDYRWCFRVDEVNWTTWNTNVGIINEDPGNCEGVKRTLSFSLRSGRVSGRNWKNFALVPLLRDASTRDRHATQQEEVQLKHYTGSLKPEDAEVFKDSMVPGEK
Compound,Hill Slope ± SEM [2],enhancing activity (in words) [2],other results
CCCC1C(C(=O)OCC)=C(c2ccccc2)N=C(C)/C1=C(/O)SCC (stereo not shown) [Compound 18],1.38 ± 0.23,"strong, dosedependent effects",EC50 [1]: 10.5 ± 1.1 µM; Hill Slope ± SEM [1]: 1.47 ± 0.16
"CO/C(O)=C1\C(C)=NC(C)=C([N+](=O)[O-])[C@H]1c1ccccc1C(F)(F)F [S(–)-Bay K 8644, reference compound]",,not enhancers,enhancing activity (in words) [1]: not enhancers
"CCOC(=O)C1=C(C)NC(c2cccc(Cl)c2)=C(C(=O)OCC)C1CC (racemic) [Compound 9, 3,5-Diethyl-2-methyl-4-ethyl-6-(3-chlorophenyl)-1,4-(±)-dihydropyridine-3,5-dicarboxylate]",1.45 ± 0.28,,Hill Slope ± SEM [1]: 2.24 ± 0.53
"CCOC(=O)C1=C(c2ccc(F)cc2)NC(C)=C(C(=O)SCCc2ccccc2)C1CC (racemic) [Compound 29, 3-(2-Phenylethylthio)-5-ethyl-2-methyl-4-ethyl-6-(4-fluorophenyl)-1,4-(±)-dihydropyridine-3,5-dicarboxylate]",1.18 ± 0.25,slightly active,
"CCOC(=O)C1=C(c2cccc(F)c2)NC(C)=C(C(=O)SCC)C1CC (racemic) [Compound 14, 3-Ethylthio-5-ethyl-2-methyl-4-ethyl-6-(3-fluorophenyl)-1,4-(±)-dihydropyridine-3,5-dicarboxylate]",1.59 ± 0.33,"strong, dosedependent effects",
CCOC(=O)C1=C(c2ccccc2)N=C(C)/C(=C(/O)SCC)C1CC (stereo not shown) [Compound 12],1.55 ± 0.17,,
"CCOC(=O)C1=C(c2ccc(F)cc2)NC(C)=C(C(=O)SCC)C1CC (racemic) [Compound 15, 3-Thioethyl-5-ethyl-2-methyl-4-ethyl-6-(4-fluorophenyl)-1,4-(±)-dihydropyridine-3,5-dicarboxylate]",1.82 ± 0.33,,
"CCCC1C(C(=O)SCCc2ccccc2)=C(C)NC(c2ccccc2)=C1C(=O)OCC (racemic) [Compound 26, 3-(2-Phenylethylthio)-5-ethyl-2-methyl-4-propyl-6-phenyl-1,4-(±)-dihydropyridine-3,5-dicarboxylate]",1.14 ± 0.32,,
"COC(=O)C1=C(C)NC(C)=C(C(=O)OCCN(C)Cc2ccccc2)C1c1cccc([N+](=O)[O-])c1 (stereo not shown) [nicardipine, reference compound]",,not enhancers,enhancing activity (in words) [1]: not enhancers; Ki [3]: 3.25 µM
"COc1cc(CNC(=O)CCCC/C=C/C(C)C)ccc1O [capsaicin, reference compound]",,,"peak ratio (340/380, normalized to baseline) ([4]; 200 nM capsaicin alone, 30 sec, 98 cells): 1.518±0.001; ED100 for capsaicin activation of TRPV1 ([2]; pH 7.5): ~ 2 µM"
CCOC(=O)C1=C(c2ccc([N+](=O)[O-])cc2)NC(C)=C(C(=O)SCc2ccccc2)C1CC (racemic) [Compound 31],,neutral,enhancing activity (in words) [1]: inactive
"CCOC(=O)C1=C(C2CCCCC2)NC(C)=C(C(=O)SCC)C1CC (racemic) [Compound 17, 3-Ethylthio-5-ethyl-2-methyl-4-ethyl-6-cyclohexyl-1,4-(±)-dihydropyridine-3,5-dicarboxylate]",,inactive,
"CCOC(=O)C1=C(C)NC(c2cccc(F)c2)=C(C(=O)OCC)C1CC (racemic) [Compound 10, 3,5-Diethyl-2-methyl-4-ethyl-6-(3-fluorophenyl)-1,4-(±)-dihydropyridine-3,5-dicarboxylate]",1.98 ± 0.30,,EC50 [1]: 20.5 ± 1.1 µM; Hill Slope ± SEM [1]: 2.64 ± 0.59
"CCOC(=O)C1=C(C)NC(c2ccc(F)cc2)=C(C(=O)OCC)C1CC (racemic) [Compound 11, 3,5-Diethyl-2-methyl-4-ethyl-6-(4-fluorophenyl)-1,4-(±)-dihydropyridine-3,5-dicarboxylate]",1.86 ± 0.42,,EC50 [1]: 15.7 ± 1.3 µM; Hill Slope ± SEM [1]: 2.01 ± 0.77
CCOC(=O)C1=C(c2ccccc2)N=C(C)/C(=C(/O)SCCOC)C1CC (stereo not shown) [Compound 23],1.79 ± 0.17,"strong, dosedependent effects","peak ratio (340/380, normalized to baseline) ([4]; 200 nM capsaicin in the presence of 10 µM 23, 30 sec, 69 cells): 1.701±0.001; fold increase in calcium influx ([2]; 2 µM capsaicin): 5.3 fold"
"CCOC(=O)C1=C(C)NC(c2ccccc2)=C(C(=O)OCc2ccccc2)C1C#Cc1ccccc1 (stereo not shown) [MRS1191, 1,4-dihydro-2-methyl-6-phenyl-4-(phenylethynyl)-3,5-pyridinedicarboxylic acid, 3-ethyl 5-(phenylmethyl) ester, reference compound]",,no enhancing effect,
